In US12448390B1, “Compound with α-glucosidase inhibitory activity and application thereof” (priority 2024, dated 2025):

Molecular target: a-glucosidase (Saccharomyces cerevisiae, UniProt P53341)
Type: biochemical
Conditions: 0.5 U/ml enzyme, 0.6 mM pNaGP, pH 6.8, 37° C.; for Inhibition rate %: compound at 250 μmol/L; for IC50: gradient 500 to 7.8125 μmol/L
Description: An in vitro a-glucosidase activity assay was used for activity determination:
the compounds were weighed separately, and dissolved in dimethylsulfoxide (DMSO) to prepare 250 μmol/L of a reagent for a subsequent experiment. In short, a-glucosidase solution with a final concentration of 0.5 U/ml was reacted with 250 μmol/L of the compound and 0.6 mM of pNaGP solution in 0.1 mM, pH 6.8 phosphate buffer solution, to determine the inhibitory effect of the compound on an a-glucosidase conversion substrate. […] 250 μmol/L (10 μL) of the compound, enzyme solution (40 μL), and potassium phosphate buffer solution (100 μL) were pre-incubated in a 96-well plate at 37° C. for 10 min. Then, 50 μL of the substrate (pNaGP, 0.6 mM) was added to each micropore, it was incubated at 37° C. for 20 min, the absorbance was measured at 405 nm, and changes in enzyme activity were detected.
The formula for calculating the enzyme inhibitory activity of the compound tested was as follows:
The in vitro a-glucosidase activity assay was used for activity determination:
after the compounds were weighed separately, it was dissolved in DMSO to prepare 1 mmol/L of mother solution, and it was diluted in gradient to 500 μmol/L, 250 μmol/L, 125 μmol/L, 62.5 μmol/L, 31.25 μmol/L, 15.625 μmol/L and 7.8125 μmol/L. The different concentrations of the compounds (10 μL), 0.5 U/ml of enzyme solution (40 μL), and 0.1 mM, pH 6.8 phosphate buffer solution (100 μL) were pre-incubated in the 96-well plate at 37° C. for 10 min. Then, 50 μL of the substrate (pNaGP, 0.6 mM) was added to each micropore, it was incubated at 37° C. for 20 min, the absorbance was measured at 405 nm, and changes in enzyme activity were detected.

Sequence of a-glucosidase (P53341 whole entry): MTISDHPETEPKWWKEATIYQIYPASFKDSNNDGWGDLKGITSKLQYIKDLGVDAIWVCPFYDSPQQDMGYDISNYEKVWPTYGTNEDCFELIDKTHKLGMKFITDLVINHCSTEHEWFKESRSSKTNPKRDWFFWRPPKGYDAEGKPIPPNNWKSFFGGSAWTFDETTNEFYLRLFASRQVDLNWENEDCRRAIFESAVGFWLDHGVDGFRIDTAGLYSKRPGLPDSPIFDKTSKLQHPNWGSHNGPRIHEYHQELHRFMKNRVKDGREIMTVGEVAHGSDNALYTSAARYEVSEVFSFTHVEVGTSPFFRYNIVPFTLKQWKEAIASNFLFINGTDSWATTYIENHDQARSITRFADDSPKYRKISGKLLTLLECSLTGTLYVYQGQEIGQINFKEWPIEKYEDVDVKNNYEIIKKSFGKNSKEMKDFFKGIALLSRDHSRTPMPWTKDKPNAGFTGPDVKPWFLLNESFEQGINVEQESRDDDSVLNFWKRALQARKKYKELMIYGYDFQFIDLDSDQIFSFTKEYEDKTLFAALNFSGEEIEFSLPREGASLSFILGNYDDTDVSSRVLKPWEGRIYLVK

SMILES | Inhibition rate % | IC50
Cc1ncc(CO)c2cc(C(=O)Nc3ccc(F)cc3)c(=Nc3cccc(C(F)(F)F)c3)oc12 [GFY-1] | 23.042% | –
Cc1ncc(CO)c2cc(C(=O)Nc3ccc(F)cc3)c(=Nc3ccc(C(F)(F)F)cc3)oc12 [GFY-2] | 13.832% | –
COc1cccc(N=c2oc3c(C)ncc(CO)c3cc2C(=O)Nc2ccc(F)cc2)c1 [GFY-4] | 30.769% | –
Cc1ncc(CO)c2cc(C(=O)Nc3ccc(F)cc3)c(=Nc3cc(O)cc(CO)c3)oc12 [GFY-7] | 45.254% | –
Cc1ncc(CO)c2cc(C(=O)Nc3ccc(F)c(F)c3)c(=Nc3cc(O)cc(CO)c3)oc12 [GFY-13] | 13.978% | –
Cc1ncc(CO)c2cc(C(=O)Nc3ccc(F)c(Cl)c3)c(=Nc3cccc(CO)c3)oc12 [GFY-16] | 89.604% | 140 µM
Cc1ncc(CO)c2cc(C(=O)Nc3ccc(F)c(Cl)c3)c(=Nc3cc(O)cc(CO)c3)oc12 [GFY-17] | 31.045% | –
Cc1ncc(CO)c2cc(C(=O)Nc3ccc(F)cc3)c(=Nc3ccc(F)cc3)oc12 [GFY-20] | 95.56% | 20.1 µM
Cc1ncc(CO)c2cc(C(=O)Nc3ccc(F)cc3)c(=Nc3cc(F)cc(F)c3)oc12 [GFY-21] | 99.916% | 43.1 µM
Cc1ncc(CO)c2cc(C(=O)Nc3ccc(F)cc3)c(=Nc3ccc(F)c(F)c3)oc12 [GFY-22] | 86.819% | 37 µM
Cc1ncc(CO)c2cc(C(=O)Nc3ccc(F)c(Cl)c3)c(=Nc3ccc(F)cc3)oc12 [GFY-23] | 22.127% | –
Cc1ncc(CO)c2cc(C(=O)Nc3ccc(F)c(Cl)c3)c(=Nc3cc(F)cc(F)c3)oc12 [GFY-24] | 99.833% | 16.6 µM
Cc1ncc(CO)c2cc(C(=O)Nc3ccc(F)c(Cl)c3)c(=Nc3ccc(F)c(F)c3)oc12 [GFY-25] | 69.628% | –
Cc1ncc(CO)c2cc(C(=O)Nc3ccc(F)c(Cl)c3)c(=Nc3ccc(Cl)cc3)oc12 [GFY-26] | 62.651% | –
Cc1ncc(CO)c2cc(C(=O)Nc3ccc(F)c(Cl)c3)c(=Nc3cc(Br)cc(Br)c3)oc12 [GFY-27] | 56.656% | –
Cc1ncc(CO)c2cc(C(=O)Nc3ccc(F)c(Cl)c3)c(=Nc3ccc(Br)c(Br)c3)oc12 [GFY-28] | 64.035% | –
Cc1ncc(CO)c2cc(C(=O)Nc3ccc(F)cc3)c(=Nc3cc(Br)cc(Br)c3)oc12 [GFY-29] | 94.686% | 27 µM
